Measurements: US9073853B2, “Cycloalkane carboxylic acid derivatives as CXCR3 receptor antagonists” (Sanofi, priority 2011, dated 2015)

Target: human CXCR3-A receptor (Homo sapiens (Human), UniProt P49682)
Experiment: 125I-CXCL10 competition radioligand binding assay
Conditions: displacement of 125I-CXCL10 from membranes of CHO cells expressing human recombinant CXCR3-A
Summary of the method: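 Membranes from a recombinant cell line expressing human CXCR3-A (10-20 μg protein) were incubated with 125I-CXCL10 and test compound for 60 min at 25° C, then filtered onto PEI-soaked GF/B filters and gamma-counted. IC50 and Hill slope came from four-parameter nonlinear fitting of competition curves.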

Chain of human CXCR3-A receptor (P49682 whole entry): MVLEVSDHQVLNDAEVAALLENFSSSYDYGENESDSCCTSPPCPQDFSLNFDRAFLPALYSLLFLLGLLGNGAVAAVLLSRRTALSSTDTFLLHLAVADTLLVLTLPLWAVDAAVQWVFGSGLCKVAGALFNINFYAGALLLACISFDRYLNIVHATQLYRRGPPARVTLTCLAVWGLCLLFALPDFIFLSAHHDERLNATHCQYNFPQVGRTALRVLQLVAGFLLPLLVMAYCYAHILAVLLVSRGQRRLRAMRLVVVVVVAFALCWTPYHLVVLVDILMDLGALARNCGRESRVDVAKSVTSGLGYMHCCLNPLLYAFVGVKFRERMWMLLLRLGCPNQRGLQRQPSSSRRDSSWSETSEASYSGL

| Compound | IC50 [nM] |
| --- | --- |
| COc1cc(CN(C[C@@H]2C[C@@H]2C(=O)O)C(C)c2ccc3c(c2)CCO3)ccc1OCCN1C(=O)CCC1=O (stereo partly drawn) [Example 114, (1S,2R)-2-[([1-(2,3-Dihydro-benzofuran-5-yl)-ethyl]-{4-[2-(2,5-dioxo-pyrrolidin-1-yl)-ethoxy]-3-methoxy-benzyl}-amino)-methyl]-cyclopropanecarboxylic acid] | 180 |
| CCC(c1ccc(Cl)cc1)N(Cc1ccc(OCCN2C(=O)CN(C)C2=O)c(C)c1)C[C@@H]1[C@@H](C(=O)O)C1(C)C (stereo partly drawn) [Example 115, (1R,3R)-3-[([1-(4-Chloro-phenyl)-propyl]-{3-methyl-4-[2-(3-methyl-2,5-dioxo-imidazolidin-1-yl)-ethoxy]-benzyl}-amino)-methyl]-2,2-dimethyl-cyclopropanecarboxylic acid] | 244 |
| CCC(c1ccc(Cl)cc1)N(Cc1ccc(OCCN2C(=O)CN(C)C2=O)c(OC)c1)C[C@H]1[C@H](C(=O)O)C1(C)C (stereo partly drawn) [Example 116, (1S,3S)-3-[([1-(4-Chloro-phenyl)-propyl]-{3-methoxy-4-[2-(3-methyl-2,5-dioxo-imidazolidin-1-yl)-ethoxy]-benzyl}-amino)-methyl]-2,2-dimethyl-cyclopropanecarboxylic acid] | 160 |
| CCC(c1ccc(Cl)cc1)N(Cc1ccc(OCCN2C(=O)CCC2=O)c(OC)c1)C[C@H]1[C@H](C(=O)O)C1(C)C (stereo partly drawn) [Example 117, (1S,3S)-3-[([1-(4-Chloro-phenyl)-propyl]-{4-[2-(2,5-dioxo-pyrrolidin-1-yl)-ethoxy]-3-methoxy-benzyl}-amino)-methyl]-2,2-dimethyl-cyclopropanecarboxylic acid] | 71 |
| CCC(c1ccc(Cl)cc1)N(Cc1ccc(OCCN2C(=O)CCC2=O)c(C)c1)C[C@@H]1[C@@H](C(=O)O)C1(C)C (stereo partly drawn) [Example 118, (1R,3R)-3-[([1-(4-Chloro-phenyl)-propyl]-{4-[2-(2,5-dioxo-pyrrolidin-1-yl)-ethoxy]-3-methyl-benzyl}-amino)-methyl]-2,2-dimethyl-cyclopropanecarboxylic acid] | 190 |
| COc1cc(CN(CC2(C(=O)O)CC2)C2CCc3cc(Cl)ccc32)ccc1OCCN1C(=O)CCC1=O (centres unmarked) [Example 119, 1-[((5-Chloro-indan-1-yl)-{4-[2-(2,5-dioxo-pyrrolidin-1-yl)-ethoxy]-3-methoxy-benzyl}-amino)-methyl]-cyclopropanecarboxylic acid] | 3200 |
| COc1cc(CN(C(C)c2ccc3c(c2)CCO3)[C@H]2C[C@H](C(=O)O)C2)ccc1OCCn1c(=O)ccn(C)c1=O (stereo partly drawn) [Example 120, trans-3-([1-(2,3-Dihydro-benzofuran-5-yl)-ethyl]-{3-methoxy-4-[2-(3-methyl-2,6-dioxo-3,6-dihydro-2H-pyrimidin-1-yl)-ethoxy]-benzyl}-amino)-cyclobutanecarboxylic acid] | 2900 |
| COc1cc(CN(C(C)c2ccc3c(c2)CCO3)[C@H]2C[C@@H](C(=O)O)C2)ccc1OCCn1c(=O)ccn(C)c1=O (stereo partly drawn) [Example 121, cis-3-([1-(2,3-Dihydro-benzofuran-5-yl)-ethyl]-{3-methoxy-4-[2-(3-methyl-2,6-dioxo-3,6-dihydro-2H-pyrimidin-1-yl)-ethoxy]-benzyl}-amino)-cyclobutanecarboxylic acid] | 152 |
| COc1cc(CN([C@H]2C[C@@H](C(=O)O)C2)[C@H](C)c2ccc3c(c2)CCO3)ccc1OCCn1c(=O)ccn(C)c1=O [Example 122, cis-3-([(R)-1-(2,3-Dihydro-benzofuran-5-yl)-ethyl]-{3-methoxy-4-[2-(3-methyl-2,6-dioxo-3,6-dihydro-2H-pyrimidin-1-yl)-ethoxy]-benzyl}-amino)-cyclobutanecarboxylic acid] | 70 |
| COc1cc(CN([C@H]2C[C@@H](C(=O)O)C2)[C@@H](C)c2ccc3c(c2)CCO3)ccc1OCCn1c(=O)ccn(C)c1=O [Example 123, cis-3-([(S)-1-(2,3-Dihydro-benzofuran-5-yl)-ethyl]-{3-methoxy-4-[2-(3-methyl-2,6-dioxo-3,6-dihydro-2H-pyrimidin-1-yl)-ethoxy]-benzyl}-amino)-cyclobutanecarboxylic acid] | 7000 |
| Cc1cc(CN(C(C)c2ccc(Cl)c(F)c2)[C@H]2C[C@@H](C(=O)O)C2)ccc1OCCN1C(=O)CCC1=O (stereo partly drawn) [Example 125, cis-3-([1-(4-Chloro-3-fluoro-phenyl)-ethyl]-{4-[2-(2,5-dioxo-pyrrolidin-1-yl)-ethoxy]-3-methyl-benzyl}-amino)-cyclobutanecarboxylic acid] | 465 |
| COc1cc(CN(C2CC(C(=O)O)C2)C2CCc3cc(Cl)ccc32)ccc1OCCN1C(=O)CCC1=O (centres unmarked) [Example 127, 3-((5-Chloro-indan-1-yl)-{4-[2-(2,5-dioxo-pyrrolidin-1-yl)-ethoxy]-3-methoxy-benzyl}-amino)-cyclobutanecarboxylic acid] | 1090 |
| Cc1cc([C@@H](C)N(Cc2ccc(OCCN3C(=O)CCC3=O)c(C)c2)[C@H]2C[C@@H](C(=O)O)C2)ccc1Cl [Example 129, cis-3-([(R)-1-(4-Chloro-3-methyl-phenyl)-ethyl]-{4-[2-(2,5-dioxo-pyrrolidin-1-yl)-ethoxy]-3-methyl-benzyl}-amino)-cyclobutanecarboxylic acid] | 105 |
| Cc1cc([C@H](C)N(Cc2ccc(OCCN3C(=O)CCC3=O)c(C)c2)[C@H]2C[C@H](C(=O)O)C2)ccc1Cl [Example 130] | 5300 |
| Cc1cc([C@H](C)N(Cc2ccc(OCCN3C(=O)CCC3=O)c(C)c2)[C@H]2C[C@@H](C(=O)O)C2)ccc1Cl [Example 131, cis-3-([(S)-1-(4-Chloro-3-methyl-phenyl)-ethyl]-{4-[2-(2,5-dioxo-pyrrolidin-1-yl)-ethoxy]-3-methyl-benzyl}-amino)-cyclobutanecarboxylic acid] | 6500 |
| Cc1cc(CN([C@H]2C[C@@H](C(=O)O)C2)[C@H](C)c2ccc(Cl)cc2)ccc1OCCN1C(=O)CCC1=O [Example 132, cis-3-([(R)-1-(4-Chloro-phenyl)-ethyl]-{4-[2-(2,5-dioxo-pyrrolidin-1-yl)-ethoxy]-3-methyl-benzyl}-amino)-cyclobutanecarboxylic acid] | 170 |
| Cc1cc(CN(C2CCc3cc(Cl)ccc32)[C@H]2C[C@@H](C(=O)O)C2)ccc1OCCN1C(=O)CCC1=O (stereo partly drawn) [Example 133, cis-3-((5-Chloro-indan-1-yl)-{4-[2-(2,5-dioxo-pyrrolidin-1-yl)-ethoxy]-3-methyl-benzyl}-amino)-cyclobutanecarboxylic acid] | 1640 |
| Cc1cc(CN(C(C)c2ccc3c(c2)CCO3)[C@H]2C[C@@H](C(=O)O)C2)ccc1OCCn1c(=O)ccn(C)c1=O (stereo partly drawn) [Example 134, cis-3-([1-(2,3-Dihydro-benzofuran-5-yl)-ethyl]-{3-methyl-4-[2-(3-methyl-2,6-dioxo-3,6-dihydro-2H-pyrimidin-1-yl)-ethoxy]-benzyl}-amino)-cyclobutanecarboxylic acid] | 240 |
| Cc1cc(CN([C@H]2C[C@@H](C(=O)O)C2)[C@H](C)c2ccc(Cl)cc2)ccc1OCCn1c(=O)ccn(C)c1=O [Example 136, cis-3-([(R)-1-(4-Chloro-phenyl)-ethyl]-{3-methyl-4-[2-(3-methyl-2,6-dioxo-3,6-dihydro-2H-pyrimidin-1-yl)-ethoxy]-benzyl}-amino)-cyclobutanecarboxylic acid] | 347 |
| COc1cc(CN(C(C)c2ccc(Cl)c(Cl)c2)[C@H]2C[C@@H](C(=O)O)C2)ccc1OCCN1C(=O)CCC1=O (stereo partly drawn) [Example 137, cis-3-([1-(3,4-Dichloro-phenyl)-ethyl]-{4-[2-(2,5-dioxo-pyrrolidin-1-yl)-ethoxy]-3-methoxy-benzyl}-amino)-cyclobutanecarboxylic acid] | 104 |
| Cc1cc(CN(C(C)c2ccc(Cl)c(Cl)c2)[C@H]2C[C@@H](C(=O)O)C2)ccc1OCCN1C(=O)CCC1=O (stereo partly drawn) [Example 138, cis-3-([1-(3,4-Dichloro-phenyl)-ethyl]-{4-[2-(2,5-dioxo-pyrrolidin-1-yl)-ethoxy]-3-methyl-benzyl}-amino)-cyclobutanecarboxylic acid] | 670 |
| CCc1cc(CN(C(C)c2ccc(Cl)c(Cl)c2)[C@H]2C[C@@H](C(=O)O)C2)ccc1OCCN1C(=O)CCC1=O (stereo partly drawn) [Example 139, cis-3-([1-(3,4-Dichloro-phenyl)-ethyl]-{4-[2-(2,5-dioxo-pyrrolidin-1-yl)-ethoxy]-3-ethyl-benzyl}-amino)-cyclobutanecarboxylic acid] | 1200 |
| CCc1cc(CN(C(C)c2ccc(Cl)c(F)c2)[C@H]2C[C@@H](C(=O)O)C2)ccc1OCCN1C(=O)CCC1=O (stereo partly drawn) [Example 140, cis-3-([1-(4-Chloro-3-fluoro-phenyl)-ethyl]-{4-[2-(2,5-dioxo-pyrrolidin-1-yl)-ethoxy]-3-ethyl-benzyl}-amino)-cyclobutanecarboxylic acid] | 260 |
| CCC(c1ccc(Cl)c(Cl)c1)N(Cc1ccc(OCCN2C(=O)CCC2=O)c(OC)c1)[C@H]1C[C@@H](C(=O)O)C1 (stereo partly drawn) [Example 141, cis-3-([1-(3,4-Dichloro-phenyl)-propyl]-{4-[2-(2,5-dioxo-pyrrolidin-1-yl)-ethoxy]-3-methoxy-benzyl}-amino)-cyclobutanecarboxylic acid] | 200 |

Same assay, conditions: read-out: % at 10 μM; at 10 μM; displacement of 125I-CXCL10

| Compound | inhibition at 10 µM [%] |
| --- | --- |
| Cc1cc(CN(C(C)c2ccc(Cl)c(F)c2)[C@H]2C[C@H](C(=O)O)C2)ccc1OCCN1C(=O)CCC1=O (stereo partly drawn) [Example 124, trans-3-([1-(4-Chloro-3-fluoro-phenyl)-ethyl]-{4-[2-(2,5-dioxo-pyrrolidin-1-yl)-ethoxy]-3-methyl-benzyl}-amino)-cyclobutanecarboxylic acid] | 24 |
| Cc1cc([C@@H](C)N(Cc2ccc(OCCN3C(=O)CCC3=O)c(C)c2)[C@H]2C[C@H](C(=O)O)C2)ccc1Cl [Example 128, trans-3-([(R)-1-(4-Chloro-3-methyl-phenyl)-ethyl]-{4-[2-(2,5-dioxo-pyrrolidin-1-yl)-ethoxy]-3-methyl-benzyl}-amino)-cyclobutanecarboxylic acid] | 37 |
